Experimental data: ChEMBL document CHEMBL1158290, “Two fungal lanostane derivatives as phospholipase A2 inhibitors” (J Nat Prod, 1996)

Assays:
[1] = molecular target: Acidic phospholipase A2 2 (Naja naja, UniProt P15445); test: Inhibition of snake venom phospholipase A2 assessed as oxygen consumption for 3 mins
[2] = molecular target: Acidic phospholipase A2 2 (Naja naja) (UniProt P15445); test: Inhibition of snake venom phospholipase A2 at 1 mM assessed as oxygen consumption for 3 mins
[3] = molecular target: Acidic phospholipase A2 2 (Naja naja) (UniProt P15445); test: Inhibition of snake venom phospholipase A2 at 3.700 mM assessed as oxygen consumption for 3 mins
[4] = molecular target: Acidic phospholipase A2 2 (Naja naja) (UniProt P15445); settings: 5.800 mM
Description: Inhibition of snake venom phospholipase A2 at 5.800 mM assessed as oxygen consumption for 3 mins

Sequence of Acidic phospholipase A2 2 (P15445 whole entry): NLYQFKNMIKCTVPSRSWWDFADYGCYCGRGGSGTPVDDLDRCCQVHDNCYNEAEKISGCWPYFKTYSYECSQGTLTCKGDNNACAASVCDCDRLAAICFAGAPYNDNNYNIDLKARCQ
Sequence of Acidic phospholipase A2 2 (Naja naja) (P15445 whole entry): as above

| SMILES | IC50 [1] [µM] | inhibition [2] [%] | inhibition [3] [%] | inhibition [4] [%] |
| --- | --- | --- | --- | --- |
| C=C(CC[C@@H](C(=O)O)[C@H]1[C@H](O)C[C@@]2(C)C3=CC[C@H]4C(C)(C)[C@@H](O)CC[C@]4(C)C3=CC[C@]12C)C(C)C [DEHYDROTUMULOSIC ACID] | 845 | 58.6 |  |  |
| C=C(CC[C@@H](C(=O)O)[C@H]1[C@H](O)C[C@@]2(C)C3=C(CC[C@]12C)[C@@]1(C)CC[C@H](OC(C)=O)C(C)(C)[C@@H]1CC3)C(C)C [PACHYMIC ACID] | 2900 |  | 66 |  |
| CCN(CC)CCCC(C)Nc1c2ccc(Cl)cc2nc2ccc(OC)cc12 (stereo unspecified) [QUINACRINE] | 2160 |  |  | 85.5 |
